Measured values reported in US9512073B2, “Amino acid-, peptide-and polypeptide-lipids, isomers, compositions, and uses thereof” (Massachusetts Institute of Technology, priority 2011, dated 2016).
Entries after “also recorded” stand apart in the source; their conditions may differ.

Assays:
firefly luciferase = assay: In vitro siRNA transfection assay (luciferase silencing) in HeLa cells with apolipoproteins; format: cell-based; details: for order of silencing effects: with addition of ApoE3 (ApoE), siRNA 50 ng/well
Experimental: HeLa cells, stably expressing firefly luciferase and Renilla luciferase, were seeded (14,000 cells/well) into each well of an opaque white 96-well plate (Corning-Costar) and allowed to attach overnight in growth medium. Growth medium was composed of 90% phenol red-free DMEM, 10% FBS, 100 units/ml penicillin, […] streptomycin (Invitrogen). Cells were transfected with LNPs formulated with anti-luciferase siRNA by addition of formulated particles to growth medium. Transfections were performed in quadruplicate. Cells were allowed to grow for 1 d at 37° C., 5% CO2 and were then analyzed for luciferase expression. Control experiments were performed with Lipofectamine 2000, as described by the vendor (Invitrogen). Firefly and Renilla luciferase expression was analyzed using Dual-Glo assay kits (Promega). Luminescence was measured using a Victor3 luminometer (Perkin Elmer). Effects of apolipoproteins were evaluated through an in vitro siRNA transfection assay in HeLa cells as previously reported. HeLa cells, stably expressing firefly luciferase and Renilla luciferase were seeded in an opaque white 96-well plate (Corning-Costar) overnight. Cells were transfected by cKK-E12 formulated with 50 ng of firefly-specific siLuc in quadruplicate. Apolipoproteins (Fitzgerald Industries) were incubated with cKK-E12 formulations for 5 mins before adding to cells. After 24 h incubation at 37° C., 5% CO2, cells were analyzed for luciferase expression using Dual-Glo assay kits (Promega). For visualization of cell uptake, cKK-E12 was formulated with an Alexa-Fluor siRNA and incubated with Hela cells for 3 h. Cells were then fixed in 4% paraformaldehyde, permeabilized with 0.1% saponin and stained with Hoescht. All images were acquired using an Opera spinning disc confocal system (Perkin Elmer), and the data was analyzed using Acapella Software (Perkin Elmer).

Factor VII = assay: In vivo Factor VII gene silencing in mice; design: species or system C57BL/6 mice
Experimental: APPL, distearoyl phosphatidylcholine (DSPC), cholesterol and mPEG2000-DMG were solubilized in 90% ethanol at a molar ratio of 50:10:38.5:1.5. The siRNA (against firefly luciferase or fVII) was solubilized in 10 mM citrate, pH 3 buffer at a concentration of 0.4 mg/mL. The ethanolic lipid solution and the aqueous siRNA solution were pumped by means of a syringe pump through a microfluidic mixing chamber to spontaneously form siRNA-containing lipid nanoparticles. Lipids were combined with siRNA at a total lipid to siRNA ratio of 7:1 (wt:wt). These formulations were dialyzed against PBS to remove ethanol and exchange buffer. […]
C57BL/6 mice (Charles River Labs) were used for siRNA silencing experiments. […] After 48 or 72 h, body-weight gain/loss was measured and mice were anaesthetized by isofluorane inhalation for blood sample collection by retroorbital eye bleed. Serum was isolated with serum separation tubes (Falcon tubes, Becton Dickinson) and Factor VII protein levels were analyzed by chromogenic assay (Biophen FVII, Aniara Corporation). A standard curve was constructed using samples from PBS-injected mice and relative Factor VII expression was determined by comparing treated groups to untreated PBS control. […]

With `CCCCCCCCCCCCN(CCCCCCCCCCCC)CCCCC1NC(=O)C(CCCCN(CCCCCCCCCCCC)CCCCCCCCCCCC)NC1=O` (centres unmarked) [cKK-A12] the “order of silencing effects” value (firefly luciferase) was “cKK-E12>cKK-A12>cKK-O12” and the “luciferase silencing, relative potency” value (firefly luciferase; without addition of ApoE3, siRNA 50 ng/well) was “more potent than cKK-E12 and cKK-O12”.
With `CCCCCCCCCCC(O)CN(CCCCC1NC(=O)C(CCCCN(CC(O)CCCCCCCCCC)CC(O)CCCCCCCCCC)NC1=O)CC(O)CCCCCCCCCC` (centres unmarked) [cKK-E12] the “Factor VII silencing, relative potency” value (Factor VII; lower dose of 0.1 mg/kg, 0.1 mg/kg) was “lead compound; also recorded: most potent material”, the “Factor VII silencing, relative potency” value (Factor VII; siRNA formulation, systemic administration, dose of 1 mg/kg) was “more potent than aldehyde and acrylate derivatives” and the “order of silencing effects” value (firefly luciferase) was “cKK-E12>cKK-A12>cKK-O12”.
